One block for each compound: values may come before it. Activity calls are given as the source filed them.
How the values were obtained:
[1] = target: Keap1/Nrf2 (Homo sapiens, UniProt Q14145); assay: disruptors of Keap1 binding to Nrf2 peptide – biochemical, fluorescence polarization, cherry-picked samples, dose response (AID 588683)
[2] = target: SUMO E1/E2 (Homo sapiens, UniProt P63279+Q9UBE0+Q9UBT2); assay: SAR analysis of SUMOylation using HTRF in an in-Vitro dose response assay. [Related pubchem assays (depositor defined):AID2006, AID2011, AID2018, AID2069, AID2658]; type: functional
[3] = test system: CHO; assay: CHO cell viability loss, potency – luminescence, cytotoxicity control for TLR9-MyD88 binding inhibitor project, dose response (AID 588339); type: functional, cell-based, hamster; settings: Cricetulus griseus;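 also: CHO cells stably coexpressing TLR9 and MyD88 fusions from primary screen; compound exposure lasted 48 hours before viability readout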
[4] = target: Beta Lactamase (Pseudomonas aeruginosa, UniProt Q932Y6); assay: BLA reporter interference, concentration series – BLA reporter cells, FRET fluorescence, artefact control for TLR9-MyD88 binding inhibitor project, dose response (AID 588341); type: cell-based;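 also: cell based assay in CHO-K1 cells stably expressing beta-lactamase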
[5] = target: Heat shock protein HSP 90-alpha (Homo sapiens, UniProt P07900); type: functional, organism-based
[6] = target: Glucose-6-phosphate 1-dehydrogenase (Homo sapiens, UniProt P11413); assay: inhibition of Homo sapiens G6PD, dose series – biochemical, fluorescence, selectivity assay for P. falciparum G6PD inhibitor project, dose response (AID 504792); type: functional
[7] = target: DNA dC->dU-editing enzyme APOBEC-3A (Homo sapiens, UniProt P31941); assay: A3A deaminase inhibition for selectivity – biochemical, dose response (AID 504722); type: functional
[8] = target: T1, Mannose-6-phosphate isomerase (Homo sapiens, UniProt P34949); assay: MPI enzyme activity inhibition – biochemical, fluorescence intensity, coupled assay, primary screen (AID 1209)
T1 sequence (P34949 whole entry): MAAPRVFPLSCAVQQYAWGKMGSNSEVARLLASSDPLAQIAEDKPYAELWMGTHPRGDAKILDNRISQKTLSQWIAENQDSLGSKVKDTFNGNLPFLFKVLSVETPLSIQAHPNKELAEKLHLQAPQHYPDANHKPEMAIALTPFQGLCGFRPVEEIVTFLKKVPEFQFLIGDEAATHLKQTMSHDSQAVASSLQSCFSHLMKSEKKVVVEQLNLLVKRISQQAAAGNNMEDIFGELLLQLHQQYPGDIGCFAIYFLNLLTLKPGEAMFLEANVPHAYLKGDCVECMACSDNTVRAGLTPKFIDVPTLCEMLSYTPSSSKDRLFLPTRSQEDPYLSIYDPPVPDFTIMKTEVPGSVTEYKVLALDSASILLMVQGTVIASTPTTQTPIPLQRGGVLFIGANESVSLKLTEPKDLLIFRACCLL

[9] = target: T1, Mannose-6-phosphate isomerase; assay: phosphomannose isomerase inhibition – biochemical, fluorescence intensity, confirmation (AID 1535)
[10] = target: Phosphomannomutase 2 (Homo sapiens, UniProt O15305); assay: Counter screen SAR assay for PMM2 inhibitors via a fluorescence intensity assay. [Related pubchem assays (depositor defined):AID1545, AID1574]
[11] = target: DNA dC->dU-editing enzyme APOBEC-3G (Homo sapiens, UniProt Q9HC16); assay: Dose Response confirmation of small molecule APOBEC3G DNA Deaminase Inhibitors via a fluorescence-based single-stranded DNA deaminase assay. [Related pubchem assays (depositor defined):AID493012, AID493028]; type: functional
[12] = target: Cytochrome P450 2C9 (Homo sapiens, UniProt P11712)
[13] = target: T2, Cytochrome P450 1A2 (Homo sapiens, UniProt P05177);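 also: PubChem cytochrome P450 panel assay, CYP1A2 panel member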
T2 sequence (P05177 whole entry): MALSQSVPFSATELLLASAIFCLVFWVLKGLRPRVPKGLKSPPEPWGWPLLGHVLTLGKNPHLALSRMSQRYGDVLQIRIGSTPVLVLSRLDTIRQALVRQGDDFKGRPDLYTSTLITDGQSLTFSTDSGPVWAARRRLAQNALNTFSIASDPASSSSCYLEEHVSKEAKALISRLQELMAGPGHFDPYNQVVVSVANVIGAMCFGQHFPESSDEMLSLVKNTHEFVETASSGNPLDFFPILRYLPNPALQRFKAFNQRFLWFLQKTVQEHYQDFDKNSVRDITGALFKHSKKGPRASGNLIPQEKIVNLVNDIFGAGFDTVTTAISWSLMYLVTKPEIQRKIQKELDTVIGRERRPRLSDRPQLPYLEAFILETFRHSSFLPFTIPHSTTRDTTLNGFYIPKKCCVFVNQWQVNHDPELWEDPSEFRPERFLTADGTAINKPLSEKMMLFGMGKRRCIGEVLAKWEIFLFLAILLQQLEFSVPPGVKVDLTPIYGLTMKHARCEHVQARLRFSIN

[14] = target: Voltage-gated inwardly rectifying potassium channel KCNH2 (Homo sapiens, UniProt Q12809); settings: Potency;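 also: confirmatory quantitative high-throughput screen measuring inhibition of hERG channel activity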
Sequence of Voltage-gated inwardly rectifying potassium channel KCNH2 (Q12809 whole entry): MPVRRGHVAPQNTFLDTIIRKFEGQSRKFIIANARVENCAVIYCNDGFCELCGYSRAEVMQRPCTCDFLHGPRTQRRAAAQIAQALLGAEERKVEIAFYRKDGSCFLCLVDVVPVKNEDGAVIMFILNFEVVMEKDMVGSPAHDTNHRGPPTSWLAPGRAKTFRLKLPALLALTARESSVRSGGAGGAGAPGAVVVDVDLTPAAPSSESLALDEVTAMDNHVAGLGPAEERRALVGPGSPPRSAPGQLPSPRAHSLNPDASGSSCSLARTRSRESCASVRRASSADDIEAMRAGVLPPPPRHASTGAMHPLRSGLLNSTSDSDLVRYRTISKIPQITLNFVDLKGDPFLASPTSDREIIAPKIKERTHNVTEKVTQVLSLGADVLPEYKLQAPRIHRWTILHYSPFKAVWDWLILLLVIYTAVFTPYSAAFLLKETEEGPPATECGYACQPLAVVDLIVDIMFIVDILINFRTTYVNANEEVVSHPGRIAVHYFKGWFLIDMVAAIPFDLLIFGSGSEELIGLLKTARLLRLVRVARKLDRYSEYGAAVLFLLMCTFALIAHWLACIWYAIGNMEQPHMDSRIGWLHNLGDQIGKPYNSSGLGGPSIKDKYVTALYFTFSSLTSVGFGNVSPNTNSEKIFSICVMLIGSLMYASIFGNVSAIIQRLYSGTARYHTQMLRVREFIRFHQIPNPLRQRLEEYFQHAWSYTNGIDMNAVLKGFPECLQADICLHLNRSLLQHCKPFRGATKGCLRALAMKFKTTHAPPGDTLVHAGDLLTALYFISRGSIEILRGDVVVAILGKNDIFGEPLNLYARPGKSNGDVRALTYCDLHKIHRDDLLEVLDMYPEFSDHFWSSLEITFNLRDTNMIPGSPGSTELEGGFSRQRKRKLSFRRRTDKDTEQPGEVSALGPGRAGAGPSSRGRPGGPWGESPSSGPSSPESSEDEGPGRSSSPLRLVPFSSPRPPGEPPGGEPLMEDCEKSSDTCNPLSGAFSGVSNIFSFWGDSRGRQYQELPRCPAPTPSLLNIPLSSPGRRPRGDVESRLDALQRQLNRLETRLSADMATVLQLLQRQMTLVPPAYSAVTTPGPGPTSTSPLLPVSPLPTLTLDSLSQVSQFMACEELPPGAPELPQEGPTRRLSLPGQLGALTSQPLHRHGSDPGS

Sequence of Glucose-6-phosphate 1-dehydrogenase (P11413 whole entry): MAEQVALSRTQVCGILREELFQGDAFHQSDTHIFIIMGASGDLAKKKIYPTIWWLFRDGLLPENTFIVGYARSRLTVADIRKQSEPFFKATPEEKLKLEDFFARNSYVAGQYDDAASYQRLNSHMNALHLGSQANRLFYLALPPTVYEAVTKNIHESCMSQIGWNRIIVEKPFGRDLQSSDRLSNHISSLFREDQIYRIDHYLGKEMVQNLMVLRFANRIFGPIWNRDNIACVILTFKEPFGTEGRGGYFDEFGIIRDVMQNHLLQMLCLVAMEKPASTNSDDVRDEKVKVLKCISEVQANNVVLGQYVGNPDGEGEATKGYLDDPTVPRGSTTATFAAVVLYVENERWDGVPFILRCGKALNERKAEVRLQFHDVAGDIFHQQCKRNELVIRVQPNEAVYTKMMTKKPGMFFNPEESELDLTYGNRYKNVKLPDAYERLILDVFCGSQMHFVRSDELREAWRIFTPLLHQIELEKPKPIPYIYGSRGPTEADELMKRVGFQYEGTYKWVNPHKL
Sequence of DNA dC->dU-editing enzyme APOBEC-3A (P31941 whole entry): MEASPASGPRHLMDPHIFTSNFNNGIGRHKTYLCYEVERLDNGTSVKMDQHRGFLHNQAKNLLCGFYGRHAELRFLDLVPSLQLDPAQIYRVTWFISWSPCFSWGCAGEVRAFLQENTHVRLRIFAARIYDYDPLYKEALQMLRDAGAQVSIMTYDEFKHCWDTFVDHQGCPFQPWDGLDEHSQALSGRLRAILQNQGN
Sequence of SUMO E1/E2 (Q9UBE0 whole entry, the tested form may be a part): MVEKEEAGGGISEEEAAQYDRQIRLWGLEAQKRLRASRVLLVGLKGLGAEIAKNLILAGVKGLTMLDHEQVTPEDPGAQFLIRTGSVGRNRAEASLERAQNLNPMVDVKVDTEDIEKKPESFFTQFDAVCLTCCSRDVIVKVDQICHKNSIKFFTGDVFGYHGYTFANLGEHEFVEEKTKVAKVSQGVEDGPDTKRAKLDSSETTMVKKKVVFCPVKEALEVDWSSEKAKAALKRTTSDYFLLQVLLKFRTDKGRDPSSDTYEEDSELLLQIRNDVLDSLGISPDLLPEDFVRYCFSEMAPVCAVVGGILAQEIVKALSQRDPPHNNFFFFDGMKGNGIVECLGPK
Sequence of SUMO E1/E2 (Q9UBT2 whole entry, the tested form may be a part): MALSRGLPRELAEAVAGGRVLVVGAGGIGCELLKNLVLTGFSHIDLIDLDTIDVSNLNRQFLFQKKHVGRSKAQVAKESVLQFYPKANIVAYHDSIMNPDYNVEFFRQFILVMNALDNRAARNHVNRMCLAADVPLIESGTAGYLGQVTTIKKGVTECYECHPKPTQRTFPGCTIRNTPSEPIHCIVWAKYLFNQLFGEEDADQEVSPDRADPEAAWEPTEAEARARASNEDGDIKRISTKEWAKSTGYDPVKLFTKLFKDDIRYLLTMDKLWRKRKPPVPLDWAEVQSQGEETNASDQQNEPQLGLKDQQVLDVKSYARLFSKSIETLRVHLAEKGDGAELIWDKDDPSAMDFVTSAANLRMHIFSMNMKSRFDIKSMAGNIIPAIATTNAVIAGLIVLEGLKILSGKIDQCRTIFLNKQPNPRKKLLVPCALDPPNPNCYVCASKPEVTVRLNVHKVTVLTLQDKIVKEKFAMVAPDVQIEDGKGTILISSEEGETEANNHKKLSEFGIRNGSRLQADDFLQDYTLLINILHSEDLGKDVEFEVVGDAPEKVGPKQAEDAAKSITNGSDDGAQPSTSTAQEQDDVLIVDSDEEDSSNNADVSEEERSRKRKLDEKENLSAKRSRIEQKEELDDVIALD
Sequence of SUMO E1/E2 (P63279 whole entry, the tested form may be a part): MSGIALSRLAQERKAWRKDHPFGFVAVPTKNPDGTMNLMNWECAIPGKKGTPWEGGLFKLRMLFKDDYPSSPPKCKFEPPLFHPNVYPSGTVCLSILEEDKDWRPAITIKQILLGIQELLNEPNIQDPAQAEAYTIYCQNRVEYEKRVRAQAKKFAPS
Sequence of Phosphomannomutase 2 (O15305 whole entry): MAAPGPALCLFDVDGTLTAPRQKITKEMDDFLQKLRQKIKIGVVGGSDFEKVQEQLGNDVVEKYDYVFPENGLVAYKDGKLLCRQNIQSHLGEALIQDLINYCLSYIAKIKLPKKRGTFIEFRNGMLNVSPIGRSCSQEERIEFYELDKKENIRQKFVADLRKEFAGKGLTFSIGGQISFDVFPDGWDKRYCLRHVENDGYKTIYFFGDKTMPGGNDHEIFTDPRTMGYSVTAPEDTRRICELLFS
Sequence of Keap1/Nrf2 (Q16236 whole entry): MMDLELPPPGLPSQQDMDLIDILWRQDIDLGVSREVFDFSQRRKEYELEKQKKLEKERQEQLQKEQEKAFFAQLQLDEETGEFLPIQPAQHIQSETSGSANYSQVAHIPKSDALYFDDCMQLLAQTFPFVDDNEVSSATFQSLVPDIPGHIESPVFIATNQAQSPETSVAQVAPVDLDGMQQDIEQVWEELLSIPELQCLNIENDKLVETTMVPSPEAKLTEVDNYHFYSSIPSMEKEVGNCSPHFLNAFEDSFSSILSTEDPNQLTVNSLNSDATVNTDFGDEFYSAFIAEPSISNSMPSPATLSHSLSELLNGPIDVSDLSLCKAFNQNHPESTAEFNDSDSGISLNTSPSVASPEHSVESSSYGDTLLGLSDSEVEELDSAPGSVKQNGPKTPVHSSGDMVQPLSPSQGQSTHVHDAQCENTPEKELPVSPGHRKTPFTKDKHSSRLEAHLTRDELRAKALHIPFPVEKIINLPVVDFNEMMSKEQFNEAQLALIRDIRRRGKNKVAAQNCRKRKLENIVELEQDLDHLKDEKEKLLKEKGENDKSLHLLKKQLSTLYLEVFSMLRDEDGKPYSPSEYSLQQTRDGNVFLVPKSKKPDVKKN
Sequence of Keap1/Nrf2 (Q14145 whole entry): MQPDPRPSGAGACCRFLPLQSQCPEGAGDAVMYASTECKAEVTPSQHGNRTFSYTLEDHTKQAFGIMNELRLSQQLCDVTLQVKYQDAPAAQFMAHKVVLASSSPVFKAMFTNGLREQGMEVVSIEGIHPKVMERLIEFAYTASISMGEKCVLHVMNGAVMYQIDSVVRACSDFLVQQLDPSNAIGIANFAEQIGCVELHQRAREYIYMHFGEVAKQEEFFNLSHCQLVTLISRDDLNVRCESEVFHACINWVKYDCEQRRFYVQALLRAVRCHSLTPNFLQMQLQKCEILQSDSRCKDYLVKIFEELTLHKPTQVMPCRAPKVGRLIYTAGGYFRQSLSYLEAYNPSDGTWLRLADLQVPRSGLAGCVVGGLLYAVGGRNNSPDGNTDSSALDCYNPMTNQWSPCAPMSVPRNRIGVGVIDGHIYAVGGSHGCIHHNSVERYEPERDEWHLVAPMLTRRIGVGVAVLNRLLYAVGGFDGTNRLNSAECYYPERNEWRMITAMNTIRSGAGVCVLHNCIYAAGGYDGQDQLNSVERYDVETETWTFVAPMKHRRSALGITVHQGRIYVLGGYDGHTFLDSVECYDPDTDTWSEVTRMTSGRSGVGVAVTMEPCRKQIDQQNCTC
Sequence of DNA dC->dU-editing enzyme APOBEC-3G (Q9HC16 whole entry): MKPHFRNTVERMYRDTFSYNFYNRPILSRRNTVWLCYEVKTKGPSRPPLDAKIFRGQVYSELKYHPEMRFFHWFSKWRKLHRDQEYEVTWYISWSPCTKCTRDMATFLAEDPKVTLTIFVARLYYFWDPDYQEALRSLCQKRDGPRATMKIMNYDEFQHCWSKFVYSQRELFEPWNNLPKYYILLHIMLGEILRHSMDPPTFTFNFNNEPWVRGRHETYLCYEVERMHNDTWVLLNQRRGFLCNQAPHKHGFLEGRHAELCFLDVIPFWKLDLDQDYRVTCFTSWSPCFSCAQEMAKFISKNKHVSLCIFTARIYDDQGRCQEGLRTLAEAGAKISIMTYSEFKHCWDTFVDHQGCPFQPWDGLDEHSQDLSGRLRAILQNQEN

SMILES: CC(C)N1CC=C2C(C#N)=C(N)C(C#N)(C#N)C(c3ccccc3)C2C1 (centres undefined)
AC50 [1]: > 52 µM (inactive)

SMILES: O=C1C=CC(=O)N1CCCCCCCCCCN1C(=O)C=CC1=O
IC50 [3]: 1.82 µM (active) | IC50 [4]: 16.3 µM (inactive) | AC50 [5]: 1.49 µM (active) | IC50 [6]: > 80 µM (inactive)

SMILES: CCSc1nnc(S)s1
IC50 [7]: > 100 µM (inactive) | IC50 [8]: 49.7 µM (active) | IC50 [9]: 44.2 µM (active) | IC50 [10]: > 100 µM (inactive) | IC50 [11]: 7.81 µM (active)

Now from value to compound, other results behind:

IC50 [2]: > 100 µM (inactive)
SMILES: O=C(O)c1ccc2c(c1)C1C=CCC1C(c1ccc(F)cc1)N2 (centres undefined)

AC50 [12]: inconclusive | AC50 [13]: inconclusive
SMILES: O=C(O)c1cc(O)c2ccc(Cl)cc2n1 [7-CHLOROKYNURENIC ACID]
AC50 [14]: 6.31 µM (inconclusive)

Source: ChEMBL document CHEMBL1201862, “PubChem BioAssay data set” (2004)
